The source made the active and inactive calls. The calls are words filed in the database; no cut-off is given here.
Assays:
[1] = Inhibition of alpha-glucosidase (unknown origin); parameters: species or system Homo sapiens
Homo sapiens [2] = species on record: Homo sapiens; experiment: Binding affinity to alpha-glucosidase (unknown origin) assessed as change in gibbs free energy at 298 K by Van't Hoff equation analysis
Homo sapiens [3] = species on record: Homo sapiens; experiment: Binding affinity to alpha-glucosidase (unknown origin) assessed as enzyme complexation with compound by measuring mean height of enzyme at 2.5 uM by atomic force microscopy (reference value: 0.87 nm)
Rattus norvegicus [4] = species on record: Rattus norvegicus; experiment: Inhibition of alpha-glucosidase in rat everted intestinal sleeves assessed as reduction in blood glucose AUC (0-90) outside of the intestinal sleeves at 0.173 mM; assay type: tissue-based; details: Intestine, time min 0-90
Rattus norvegicus [5] = species on record: Rattus norvegicus; experiment: Inhibition of alpha-glucosidase in rat everted intestinal sleeves assessed as reduction in glucose concentration within intestinal sleeves at 0.173 mM measured for 5 to 90 mins; assay type: tissue-based; details: Intestine, time min 5-90
Homo sapiens [6] = species on record: Homo sapiens; experiment: Binding affinity to alpha-glucosidase (unknown origin) assessed as decrease in fluorescence intensity at 0.16-1.66 uM by fluorescence based Synchronous fluorescence spectroscopy; details: dose microM 0.16-1.66
Homo sapiens [7] = species on record: Homo sapiens; experiment: Binding affinity to alpha-glucosidase (unknown origin) assessed as fluorescence quenching at 0.16 to 1.83 uM by fluorescence spectral analysis; details: dose microM 0.16-1.83
Homo sapiens [8] = species on record: Homo sapiens; experiment: Binding affinity to alpha-glucosidase (unknown origin) assessed as enzyme complexation with compound at 2.5 uM by measuring mean width of enzyme by atomic force microscopy (reference value: 28.35 nm)
Homo sapiens [9] = species on record: Homo sapiens; experiment: Non-competitive inhibition of alpha-glucosidase (unknown origin) assessed as decrease in Vmax with constant Km at 0.0 to 0.92 uM using p-NPG as substrate by Lineweaver-Burk plot analysis; details: dose microM 0.0-0.92
Mus musculus [10] = species on record: Mus musculus; experiment: Hypoglycemic activity in Kunming mouse assessed as reduction in maltose-induced blood glucose AUC (0 to 120 mins) by maltose loading test; assay type: functional, organism-based; details: time min 0-120
Homo sapiens [11] = species on record: Homo sapiens; experiment: Binding affinity to alpha-glucosidase (unknown origin) assessed as change in gibbs free energy at 310 K by Van't Hoff equation analysis
Mus musculus [12] = species on record: Mus musculus; experiment: Hypoglycemic activity in Kunming mouse assessed as reduction in maltose-induced postprandial blood glucose level measured after 15 to 120 mins by maltose loading test; assay type: functional, organism-based; details: time min 15-120
[13] = Binding affinity to alpha-glcosidase (unknown origin) using p-NPG as substrate; parameters: species or system Homo sapiens
Homo sapiens [14] = species on record: Homo sapiens; experiment: Binding affinity to alpha-glucosidase (unknown origin) assessed as decrease in fluorescence intensity of Tyr residue without shift in maximum emission wavelength at 0.16 to 1.66 uM by fluorescence based Synchronous fluorescence spectroscopy; details: dose microM 0.16-1.66
Homo sapiens [15] = species on record: Homo sapiens; experiment: Binding affinity to alpha-glucosidase (unknown origin) assessed as Stern-Volmer quenching constant at 304 K
Homo sapiens [16] = species on record: Homo sapiens; experiment: Binding affinity to alpha-glucosidase (unknown origin) assessed as change in the microenvironment of tryptophan residue by measuring blue shift at 0.16 to 1.66 uM by fluorescence based Synchronous fluorescence spectroscopy; details: dose microM 0.16-1.66
Homo sapiens [17] = species on record: Homo sapiens; experiment: Binding affinity to alpha-glucosidase (unknown origin) assessed as quenching constant at 298 K
Homo sapiens [18] = species on record: Homo sapiens; experiment: Binding affinity to alpha-glucosidase (unknown origin) assessed as hydrophobic interactions by measuring change in enthalpy at 304 K by Van't Hoff equation analysis
Homo sapiens [19] = species on record: Homo sapiens; experiment: Binding affinity to alpha-glucosidase (unknown origin) assessed as change in gibbs free energy at 304 K by Van't Hoff equation analysis
Homo sapiens [20] = species on record: Homo sapiens; experiment: Binding affinity to alpha-glucosidase (unknown origin) assessed as hydrogen bonding interactions by measuring change in entropy at 304 K by Van't Hoff equation analysis
Homo sapiens [21] = species on record: Homo sapiens; experiment: Binding affinity to alpha-glucosidase (unknown origin) assessed as quenching constant at 310 K
Homo sapiens [22] = species on record: Homo sapiens; experiment: Binding affinity to alpha-glucosidase (unknown origin) assessed as binding constant at 298 K
Rattus norvegicus [23] = species on record: Rattus norvegicus; experiment: Inhibition of alpha-glucosidase in rat everted intestinal sleeves assessed as reduction in blood glucose AUC (0-90) within intestinal sleeves at 0.173 mM; assay type: tissue-based; details: Intestine, time min 0-90
Rattus norvegicus [24] = species on record: Rattus norvegicus; experiment: Inhibition of alpha-glucosidase in rat everted intestinal sleeves assessed as reduction in glucose concentration outside of the intestinal sleeves at 0.173 mM measured after 5 to 90 mins; assay type: tissue-based; details: Intestine, time min 5-90
Homo sapiens [25] = species on record: Homo sapiens; experiment: Binding affinity to alpha-glucosidase (unknown origin) assessed as Stern-Volmer quenching constant at 298 K
Homo sapiens [26] = species on record: Homo sapiens; experiment: Binding affinity to alpha-glucosidase (unknown origin) assessed as Stern-Volmer quenching constant at 310 K
Homo sapiens [27] = species on record: Homo sapiens; experiment: Binding affinity to alpha-glucosidase (unknown origin) assessed as change in the microenvironment of tyrosine residue by measuring red shift at 0.16 to 1.66 uM by fluorescence based Synchronous fluorescence spectroscopy; details: dose microM 0.16-1.66
Homo sapiens [28] = species on record: Homo sapiens; experiment: Binding affinity to alpha-glucosidase (unknown origin) assessed as quenching constant at 304 K
Homo sapiens [29] = species on record: Homo sapiens; experiment: Binding affinity to alpha-glucosidase (unknown origin) assessed as binding constant at 304 K
Homo sapiens [30] = species on record: Homo sapiens; experiment: Binding affinity to alpha-glucosidase (unknown origin) assessed as destabilization of enzyme conformation by measuring induction of protein aggregation at 2.5 uM by atomic force microscopy
Homo sapiens [31] = species on record: Homo sapiens; experiment: Binding affinity to alpha-glucosidase (unknown origin) assessed as binding constant at 310 K

Cc1cc(C(=O)C(C)C)c(O)cc1OC(=O)CCl
IC50 ([1]; read-out: IC50): 140 µM

CCC(=O)Oc1cc(O)c(C(=O)C(C)C)cc1C
IC50 [1]: Not Active

Cc1cc(C(=O)C(C)C)c(O)cc1OC(=O)c1ccc(Br)cc1
IC50 ([1]; read-out: IC50): 26 µM

CCC(=O)c1ccc(O)cc1O
IC50 [1]: Not Active

Cc1cc(C(=O)C(C)C)c(O)c(Br)c1OC(=O)c1ccc(Cl)cc1
IC50 ([1]; read-out: IC50): 24.9 µM

Cc1cc(C(=O)C(C)C)c(O)cc1O
IC50 ([1]; read-out: IC50): 23.7 µM

Cc1cc(C(=O)C(C)C)c(O)c(Br)c1OC(=O)c1ccc(F)cc1
IC50 ([1]; read-out: IC50): 15.7 µM

Cc1cc(C(=O)C(C)C)c(O)c(Br)c1OC(=O)c1ccc(I)cc1
IC50 ([1]; read-out: IC50): 25.4 µM

COc1ccc(C(=O)Oc2c(C)cc(C(=O)C(C)C)c(O)c2Br)cc1
IC50 ([1]; read-out: IC50): 27.6 µM

Cc1ccc(C(=O)Oc2c(C)cc(C(=O)C(C)C)c(O)c2Br)cc1
IC50 ([1]; read-out: IC50): 25.2 µM

CC(C)C(=O)c1cc(Br)c(OC(=O)CI)cc1O
IC50 ([1]; read-out: IC50): 11.3 µM

Cc1cc(C(=O)C(C)C)c(O)c(Br)c1OC(=O)C(C)(C)C
IC50 ([1]; read-out: IC50): 1.86 µM

Cc1cc(C(=O)C(C)C)c(O)c(Br)c1OC(=O)c1ccc([N+](=O)[O-])cc1
IC50 ([1]; read-out: IC50): 20.6 µM

Cc1cc(C(=O)C(C)C)c(O)c(Br)c1OC(=O)CBr
IC50 ([1]; read-out: IC50): 11.9 µM

CCC(=O)c1cc(C)c(OC(=O)CI)cc1O
IC50 ([1]; read-out: IC50): 6.22 µM

CCCC(=O)Oc1cc(O)c(C(=O)C(C)C)cc1C
IC50 ([1]; read-out: IC50): 43.2 µM

Cc1cc(C(=O)C(C)C)c(O)cc1OC(=O)Cc1ccccc1
IC50 ([1]; read-out: IC50): 25.4 µM

Cc1cc(C(=O)C(C)C)c(O)c(Br)c1OC(=O)CCl
IC50 ([1]; read-out: IC50): 30.9 µM

Cc1cc(C(=O)C(C)C)c(O)c(Br)c1OC(=O)CI
deltaG (Homo sapiens [2]): -36.5 kJ/mol
Activity (Homo sapiens [3]): 3.97 nm
inhibition (Rattus norvegicus [4]): Active
inhibition (Rattus norvegicus [5]): Active
Activity (Homo sapiens [6]): Active
Activity (Homo sapiens [7]): Active
Activity (Homo sapiens [8]): 29.6 nm
inhibition (Homo sapiens [9]): Active
Activity (Mus musculus [10]): Active
deltaG (Homo sapiens [11]): -37.2 kJ/mol
Activity (Mus musculus [12]): Dose-dependent effect
Ki [13]: 0.65 µM
Activity (Homo sapiens [14]): inactive
KSV (Homo sapiens [15]): 2.59 10^4L/mol
Activity (Homo sapiens [16]): Active
Kq (Homo sapiens [17]): 2.98 10^12L/mol/s
deltaH (Homo sapiens [18]): -19.5 kJ/mol
deltaG (Homo sapiens [19]): -36.9 kJ/mol
deltaS (Homo sapiens [20]): 57 J/mol/K
Kq (Homo sapiens [21]): 2.24 10^12L/mol/s
Ka (Homo sapiens [22]): 1.56 10^4L/mol
inhibition (Rattus norvegicus [23]): Active
IC50 ([1]; read-out: IC50): 0.57 µM
inhibition (Rattus norvegicus [24]): Active
KSV (Homo sapiens [25]): 2.98 10^4L/mol
KSV (Homo sapiens [26]): 2.24 10^4L/mol
Activity (Homo sapiens [27]): Active
Kq (Homo sapiens [28]): 2.59 10^12L/mol/s
Ka (Homo sapiens [29]): 1.45 10^4L/mol
Activity (Homo sapiens [30]): Active
Ka (Homo sapiens [31]): 1.36 10^4L/mol

CCCCCC(=O)c1ccc(O)cc1O
IC50 ([1]; read-out: IC50): 107 µM

Cc1cc(C(=O)C(C)C)c(O)cc1OC(=O)c1ccccc1Cl
IC50 ([1]; read-out: IC50): 27.4 µM

CCCCCC(=O)c1cc(C)c(OC(=O)CI)cc1O
IC50 ([1]; read-out: IC50): 3.9 µM

O=c1c(-c2ccc(O)cc2)coc2cc(O)cc(O)c12 [GENISTEIN]
IC50 ([1]; read-out: IC50): 7.21 µM

Cc1cc(C(=O)C(C)C)c(O)cc1OC(=O)c1cccc(Cl)c1
IC50 ([1]; read-out: IC50): 28.1 µM

CCCCCCC(=O)Oc1cc(O)c(C(=O)C(C)C)cc1C
IC50 ([1]; read-out: IC50): 5.93 µM

CCCCCC(=O)c1cc(C)c(O)cc1O
IC50 ([1]; read-out: IC50): 66.5 µM

CCCCCCCC(=O)c1ccc(O)cc1O
IC50 ([1]; read-out: IC50): 74.6 µM

CCCCCCC(=O)c1ccc(O)cc1O
IC50 ([1]; read-out: IC50): 81.9 µM

CCCCCCCC(=O)c1cc(C)c(O)cc1O
IC50 ([1]; read-out: IC50): 35.6 µM

Source: ChEMBL document CHEMBL4699496, “Exploring efficacy of natural-derived acetylphenol scaffold inhibitors for α-glucosidase: Synthesis, in vitro and in vivo biochemical studies” (Bioorg Med Chem Lett, 2020)
